From the Kinase Knowledgebase extract (Sharma et al. 2016) come the findings set out here.

Usually IC50 stands for the point on the concentration scale where inhibition reaches its midpoint. Low values mean greater potency in that assay, high ones weaker potency in that assay.

In the assay the target is MAPK14 (human) (UniProt Q16539). The assay is described as follows: Inhibition of In vitro MAPK14 Kinase Activity.
MAPK14 (human), sequence (Q16539 whole entry, looked up): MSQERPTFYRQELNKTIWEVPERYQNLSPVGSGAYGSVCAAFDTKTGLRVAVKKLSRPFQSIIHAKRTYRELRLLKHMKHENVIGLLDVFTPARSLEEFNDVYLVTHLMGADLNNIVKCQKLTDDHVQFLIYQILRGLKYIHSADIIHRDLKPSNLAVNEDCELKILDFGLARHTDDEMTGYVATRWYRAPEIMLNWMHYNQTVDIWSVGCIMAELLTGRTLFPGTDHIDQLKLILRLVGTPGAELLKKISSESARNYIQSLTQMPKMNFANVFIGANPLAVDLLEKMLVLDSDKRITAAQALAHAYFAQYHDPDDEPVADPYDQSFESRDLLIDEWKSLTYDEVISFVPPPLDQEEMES

Take `C[C@H](Nc1cnn(-c2c(Cl)cccc2Cl)c(=O)c1Br)[C@H](O)c1ccccc1`: the 50% inhibitory concentration (IC50) is over 100 µM.
Under `O=c1c(Br)c(Nc2ccccc2)cnn1-c1c(Cl)cccc1Cl` stands over 100 µM.
As for `CN(C)CCCn1ncc(OCc2ccc(F)cc2F)c(Br)c1=O`, the IC50 is over 100 µM.
Under `CN(C)CCn1ncc(OCc2ccc(F)cc2F)c(Br)c1=O` stands over 100 µM; under `CS(=O)(=O)OCc1ccccc1COc1cnn(-c2c(Cl)cccc2Cl)c(=O)c1Br`, 0.1 to 20 µM.
The same measure for `O=c1c(Br)c(OCCc2ccccn2)cnn1-c1c(Cl)cccc1Cl`: 0.1 to 20 µM.
Under `O=c1c(Br)c(NCC(O)c2ccccc2)cnn1-c1c(Cl)cccc1Cl` (configuration not stated) stands 0.1 to 20 µM; under `O=c1c(Br)c(N[C@H](CO)c2ccccc2)cnn1-c1c(Cl)cccc1Cl`, 0.1 to 20 µM; under `O=c1c(Br)c(OCCc2ccccc2)cnn1CCO`, over 100 µM.
Take `O=c1c(-c2ccccc2)c(OCCc2ccccc2)cnn1-c1c(Cl)cccc1Cl`: the IC50 is over 100 µM.
The same measure for `O=c1c(Br)c(OCc2ccccc2CCl)cnn1-c1c(Cl)cccc1Cl`: 0.1 to 20 µM; for `O=C(O)CC(CNc1cnn(-c2c(Cl)cccc2Cl)c(=O)c1Br)c1ccc(Cl)cc1` (configuration not stated): 80 to 100 µM.
Under `Cc1nc(Cn2ncc(OCc3ccc(F)cc3F)c(Br)c2=O)cs1` stands 0.1 to 20 µM.
The same measure for `O=c1c(Br)c(NCc2ccc(F)cc2)cnn1Cc1ccccc1`: 60 to 80 µM.
`O=c1[nH]ncc(OCCc2ccccc2)c1Br` gave an IC50 of over 100 µM.
For the molecule `O=c1[nH]ncc(OCc2ccc(F)cc2F)c1Br`, the concentration for half-maximal inhibition (IC50) was over 100 µM.
The same measure for `O=c1c(Br)c(NCCc2ccccc2F)cnn1-c1c(Cl)cccc1Cl`: 0.1 to 20 µM; for `O=c1c(Br)c(OCc2ccccc2)cnn1-c1ccccc1`: 20 to 40 µM; for `O=c1c(Br)c(OCc2ccc(F)c(F)c2)cnn1-c1c(Cl)cccc1Cl`: 0.1 to 20 µM.
For `O=c1c(Br)c(O)cnn1-c1c(Cl)cccc1Cl`, the concentration for half-maximal inhibition (IC50) was over 100 µM.
The same measure for `O=c1c(Br)c(OCc2c(F)cc(F)cc2F)cnn1-c1c(Cl)cccc1Cl`: 0.1 to 20 µM; for `O=c1c(Br)c(OCc2ccc(F)cc2)cnn1-c1c(Cl)cccc1Cl`: 0.1 to 20 µM.
The same measure for `O=c1c(Br)c(OCc2ccccc2CO)cnn1-c1c(Cl)cccc1Cl`: 0.1 to 20 µM; for `O=c1c(Oc2ccccc2)c(OCCc2ccccc2)cnn1-c1c(Cl)cccc1Cl`: over 100 µM; for `O=C(O)C(Nc1cnn(-c2c(Cl)cccc2Cl)c(=O)c1Br)c1ccccc1` (configuration not stated): over 100 µM.
Under `O=c1c(Br)c(OCc2ccc(F)cc2)cnn1Cc1ccccc1` stands over 100 µM.
With `C[C@@H](Nc1cnn(-c2c(Cl)cccc2Cl)c(=O)c1Br)[C@@H](O)c1ccccc1`, the IC50 was over 100 µM.
The molecule `O=c1c(Br)c(OCc2ccccc2)cnn1Cc1ccccc1` yielded an IC50 of over 100 µM.
Under `C[C@H](Nc1cnn(-c2c(Cl)cccc2Cl)c(=O)c1Br)c1ccccc1` stands 0.1 to 20 µM; under `O=c1c(Br)c(N[C@@H]2C[C@H]2c2ccccc2)cnn1-c1c(Cl)cccc1Cl`, over 100 µM; under `CN(C)CCCn1ncc(OCCc2ccccc2)c(Br)c1=O`, over 100 µM.
Take `C[C@@H](Nc1cnn(-c2c(Cl)cccc2Cl)c(=O)c1Br)c1ccccc1`: the IC50 is 80 to 100 µM.
For `COc1ccccc1COc1cnn(-c2c(Cl)cccc2Cl)c(=O)c1Br`, the IC50 lay in the range of 0.1 to 20 µM.
The same measure for `O=c1c(Br)c(Sc2ccc(F)cc2)cnn1Cc1ccccc1`: over 100 µM; for `O=c1c(Br)c(NCc2ccccc2)cnn1-c1c(Cl)cccc1Cl`: 0.1 to 20 µM; for `O=c1c(Br)c(OCCc2ccccc2)cnn1Cc1ccncc1`: over 100 µM.
Under `O=c1c(Br)c(NCC2CCCO2)cnn1Cc1ccccc1` (configuration not stated) stands over 100 µM; under `CN(C)CCn1ncc(OCCc2ccccc2)c(Br)c1=O`, over 100 µM.
The same measure for `O=c1c(Br)c(N(CCO)CCc2ccccc2)cnn1-c1c(Cl)cccc1Cl`: 40 to 60 µM.
Turning to `O=c1c(Br)c(OCc2ccc(F)cc2F)cnn1-c1c(Cl)cncc1Cl`, the half-maximal inhibitory concentration (IC50) fell in the range of 0.1 to 20 µM.
`NN(Cc1ccccc1)c1cnn(-c2c(Cl)cccc2Cl)c(=O)c1Br` registered an IC50 of 60 to 80 µM.
Under `O=c1c(Br)c(NCC2CCCO2)cnn1-c1c(Cl)cccc1Cl` (configuration not stated) stands over 100 µM; under `O=c1c(Br)c(NCCc2ccccc2)cnn1-c1c(Cl)cccc1Cl`, 0.1 to 20 µM.
Molecule `O=c1c(Br)c(NCc2cccc(Cl)c2)cnn1-c1c(Cl)cccc1Cl` displayed an IC50 of 20 to 40 µM.
On to `COc1c(OCCc2ccccc2)cnn(-c2c(Cl)cccc2Cl)c1=O`, for which the IC50 lay within 60 to 80 µM.
Under `Nc1ccccc1CNc1cnn(-c2c(Cl)cccc2Cl)c(=O)c1Br` stands 0.1 to 20 µM.
The same measure for `O=c1c(Br)c(OCCc2ccccc2)cnn1-c1c(Cl)cccc1Cl`: 0.1 to 20 µM.
Under `CN(CCc1ccccc1)c1cnn(-c2c(Cl)cccc2Cl)c(=O)c1Br` stands 20 to 40 µM; under `O=c1c(Br)c(N2CCN(c3ccc(F)cc3)CC2)cnn1-c1c(Cl)cccc1Cl`, over 100 µM; under `O=C(O)C(Nc1cnn(Cc2ccccc2)c(=O)c1Br)c1ccccc1` (configuration not stated), over 100 µM.
`O=c1c(Br)c(OCc2ccc(F)cc2F)cnn1Cc1ccncc1` gave an IC50 of 0.1 to 20 µM.
The same measure for `O=c1cc(OCCc2ccccc2)cnn1-c1c(Cl)cccc1Cl`: 40 to 60 µM.
Under `O=c1c(Br)c(OCc2ccc(F)cc2F)cnn1-c1c(Cl)cccc1Cl` stands 0.1 to 20 µM; under `O=c1c(Br)c(OCc2ccc(F)cc2F)cnn1-c1c(Cl)c[n+]([O-])cc1Cl`, 0.1 to 20 µM.
The same measure for `CC(C)Cc1c(OCCc2ccccc2)cnn(-c2c(Cl)cccc2Cl)c1=O`: over 100 µM; for `O=c1c(Br)c(NCc2ccc(F)cc2)cnn1-c1c(Cl)cccc1Cl`: 0.1 to 20 µM.
For `O=c1c(Br)c(NCC(CCO)c2ccc(Cl)cc2)cnn1-c1c(Cl)cccc1Cl` (configuration not stated), the IC50 is over 100 µM.
In turn, `O=c1c(Br)c(NC(CO)Cc2ccccc2)cnn1-c1c(Cl)cccc1Cl` (configuration not stated) had an IC50 of over 100 µM.
Under `O=c1c(Br)c(OCCCc2ccccc2)cnn1-c1c(Cl)cccc1Cl` stands over 100 µM; under `O=c1c(Br)c(OCc2ccc(F)cc2F)cnn1CCO`, 20 to 40 µM; under `CC(C)c1ccccc1Sc1cnn(Cc2ccccc2)c(=O)c1Br`, over 100 µM.
The same measure for `O=c1c(Br)c(OCCc2ccccc2)cnn1Cc1ccccc1`: over 100 µM; for `O=c1c(Br)c(N[C@@H](CO)c2ccccc2)cnn1-c1c(Cl)cccc1Cl`: over 100 µM.
The same measure for `O=c1c(Br)c(OCc2ccc(F)c(F)c2F)cnn1-c1c(Cl)cccc1Cl`: 0.1 to 20 µM.
Molecule `O=c1c(Br)c(OCc2ccccc2)cnn1-c1c(Cl)cccc1Cl` gave an IC50 of 0.1 to 20 µM.
Under `O=c1c(Br)c(Sc2ccc(F)cc2)cnn1-c1c(Cl)cccc1Cl` stands over 100 µM; under `Cc1c(OCCc2ccccc2)cnn(-c2c(Cl)cccc2Cl)c1=O`, 0.1 to 20 µM.
